Test results: patent publication US8507472B2 (priority 2010, dated 2013)
“And” between values parts separate entries of the source, which are not always exact repeats. Identical values can stand only once.

How the values were obtained:
[1] = tested on: Fusarium nivale (var. majus); experiment: Fusarium nivale (var. majus) test (wheat)/protective; assay type: in vivo; settings: 1000 ppm active compound, protective, evaluation 5 days after inoculation
Description: (§1) Solvent: 49 parts by weight of N,N-dimethylacetamide
(§2) Emulsifier: 1 part by weight of alkylaryl polyglycol ether
(§3) To produce a suitable preparation of active compound, 1 part by weight of active compound is mixed with the stated amounts of solvent and emulsifier, and the concentrate is diluted with water to the desired concentration.
(§4) To test for protective activity, young plants are sprayed with the active compound preparation at the stated application rate.
After the spray coating has dried on, the plants are sprayed with spores of a spore suspension of Fusarium nivale (var. majus).
The plants are placed in a greenhouse chamber under a translucent incubation hood at 10° C. and 100% relative atmospheric humidity.
Evaluation is carried out 5 days after the inoculation. 0% means an efficacy which corresponds to that of the control, whereas an efficacy of 100% means that no infection is observed.

Phytophthora infestans = assay type: in vivo; settings: in vivo
Uromyces appendiculatus = experiment: Uromyces test (bean)/protective; assay type: in vivo; settings: in vivo
Description: (§5) Solvents: 24.5 parts by weight of acetone
(§6) • 24.5 parts by weight of dimethylacetamide Emulsifier: 1 part by weight of alkylaryl polyglycol ether
(§7) To produce a suitable preparation of active compound, 1 part by weight of active compound is mixed with the stated amounts of solvents and emulsifier, and the concentrate is diluted with water to the desired concentration.
(§8) To test for protective activity, young plants are sprayed with the active compound preparation at the stated application rate. After the spray coating has dried on, the plants are inoculated with an aqueous spore suspension of the bean rust pathogen Uromyces appendiculatus and then remain in an incubation cabin at about 20° C. and 100% relative atmospheric humidity for 1 day.
(§9) The plants are then placed in a greenhouse at about 21° C. and a relative atmospheric humidity of about 90%.
(§10) Evaluation is carried out 10 days after the inoculation. 0% means an efficacy which corresponds to that of the control, whereas an efficacy of 100% means that no infection is observed.

Puccinia triticina = Puccinia triticina test (wheat)/protective; assay type: in vivo; settings: in vivo
Description: Solvent: 49 parts by weight of […]
as §2, §3, §4
After the spray coating has dried on, the plants are sprayed with spores of a spore suspension of Puccinia triticina. The plants remain in an incubation cabin at 20° C. and 100% relative atmospheric humidity for 48 hours.
The plants are placed in greenhouse at a temperature of about 20° C. and a relative atmospheric humidity of about 80%.
Evaluation is carried out 8 days after the inoculation. 0% means an efficacy which corresponds to that of the control, whereas an efficacy of 100% means that no infection is observed.

Fusarium graminearum [2] = experiment: microbe, parasite or virus in culture; assay type: cell-based; settings: 50 μM
Pyrenophora teres = Pyrenophora teres test (barley)/protective; assay type: in vivo; settings: in vivo
Outline: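 Efficacy, read 7-9 days after spore inoculation, runs from 0% (equal to untreated control) to 100% (no infection). Barley sprayed with water-diluted DMF/emulsifier formulation was inoculated one day later, incubated 48 h at 22° C. and 100% rel. humidity, then held at 20° C. and 80% humidity.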

Venturia inaequalis = experiment: Venturia test (apple)/protective; assay type: in vivo; settings: 100 ppm active compound, protective, evaluation 10 days after inoculation
Description: Solvents: 24.5 parts by weight of acetone • 24.5 parts by weight of dimethylacetamide Emulsifier: 1 part by weight of alkylaryl polyglycol ether
as §7
as §8, with “conidia” for “spore”, “apple scab” for “bean rust”, “Venturia inaequalis” for “Uromyces appendiculatus”
as §9, §10

Botrytis cinerea = experiment: Botrytis test (bean)/protective; assay type: in vivo; settings: 100 ppm active compound, protective, evaluation 2 days after inoculation
Description: as §5, §6, §7
To test for protective activity, young plants are sprayed with the active compound preparation at the stated application rate. After the spray coating has dried on, 2 small pieces of agar colonized by Botrytis cinerea are placed onto each leaf. The inoculated plants are placed in a dark chamber at about 20° C. and 100% relative atmospheric humidity.
2 days after the inoculation, the size of the infected areas on the leaves is evaluated. 0% means an efficacy which corresponds to that of the control, whereas an efficacy of 100% means that no infection is observed.

Alternaria solani = experiment: Alternaria test (tomato)/protective; assay type: in vivo; settings: in vivo
Outline: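 Treatment was protective: spray application at the stated rate came one day before spore inoculation. Incubation was 24 h at 22 °C and 100% humidity, then 20 °C and 96% humidity. Infection was rated at day 7 as % efficacy against the control, with 100% meaning no disease.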

Septoria tritici = Septoria tritici test (wheat)/protective; assay type: in vivo; settings: in vivo
Description: as §1, §2
To produce a suitable preparation of active compound, 1 part by weight of active compound is mixed with the stated amount of solvent and emulsifier, and the concentrate is diluted with water to the desired concentration.
To test for protective activity, young plants are sprayed with the active compound preparation at the stated application rate. After the spray coating has dried on, the plants are sprayed with a spore suspension of Septoria tritici. The plants remain in an incubation cabin at 20° C. and 100% relative atmospheric humidity for 48 hours. The plants are then placed under a translucent hood at 15° C. and 100% relative atmospheric humidity for a further 60 hours.
The plants are placed in a greenhouse at a temperature of about 15° C. and a relative atmospheric humidity of 80%.
Evaluation is carried out 21 days after the inoculation. 0% means an efficacy which corresponds to that of the control, whereas an efficacy of 100% means that no infection is observed.

DON/AcDON production = experiment: microbe, parasite or virus in culture; assay type: cell-based, Fusarium graminearum; settings: 7 days at 28° C.
Leptosphaeria nodorum = Leptosphaeria nodorum test (wheat)/protective; assay type: in vivo; settings: in vivo
Outline: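 Young wheat plants were sprayed protectively, then inoculated 1 day later with L. nodorum spores and held 48 h at 100% humidity and 22° C. They were then kept in a greenhouse at 90% humidity and 22° C. Efficacy was scored 7-9 days post-inoculation, where 0% equals control and 100% means no infection.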

Fusarium graminearum [3] = assay type: in vivo; settings: in vivo
Sphaerotheca fuliginea = experiment: Sphaerotheca test (cucumber)/protective; assay type: in vivo; settings: in vivo
Outline: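 Infection was rated 7 days after spore inoculation as % efficacy (0% = control level, 100% = no disease). Inoculation followed 1 day after preventive spray of young cucumbers with compound formulated in N,N-dimethylformamide plus emulsifier and diluted with water; plants were held at 23 °C and 70% relative humidity.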

Compound	efficacy in % [1]	efficacy in % (Phytophthora infestans)	efficacy in % (Uromyces appendiculatus)	efficacy in % (Puccinia triticina)	% inhibition of the fungal growth of Fusarium graminearum at 50 μM (Fusarium graminearum [2])	efficacy in % (Pyrenophora teres)	efficacy in % (Venturia inaequalis)	efficacy in % (Botrytis cinerea)	efficacy in % (Alternaria solani)	efficacy in % (Septoria tritici)	% inhibition of DON/AcDON at 50 μM (DON/AcDON production)	efficacy in % (Leptosphaeria nodorum)	efficacy in % (Fusarium graminearum [3])	efficacy in % (Sphaerotheca fuliginea)
CCC(=O)Nc1cc(-c2c(-c3ccccc3)nn3c2CCCC3)ccn1 [Example 8]	100%	95%	100%	100%	100%	100%	96%	99%	100%	100%	99%	95%	88%	99%
CC(=O)Nc1cc(-c2c(-c3ccc(F)cc3)nn3c2CCCC3)ccn1 [Example 15]	100%	95%	94%	94%	88%	100%	94%	82%	100%	100%	99%	95%	100%	98%
COCC(=O)Nc1cc(-c2c(-c3ccc(F)cc3)nn3c2CCCC3)ccn1 [Example 22]	86%	90%	94%	75%	97%	95%	76%	89%	95%	86%	100%	80%	100%	90%
COCC(=O)Nc1cc(-c2c(-c3ccccc3)nn3c2CCCC3)ccn1 [Example 23]	86%	80%	95%	75%	97%	95%	98%	100%	95%	86%	100%	90%	88%	89%
C[C@H](O)C(=O)Nc1cc(-c2c(-c3ccc(F)cc3)nn3c2CCCC3)ccn1 [Example 24]	100%	90%	91%	100%	74%	95%	83%	76%	95%	100%	99%	90%	100%	94%
O=C(Nc1cc(-c2c(-c3ccc(F)cc3)nn3c2CCCC3)ccn1)c1ccccc1 [Example 32]	86%	70%	96%	89%	94%	78%	90%	98%	78%	100%	99%	90%	86%	–
O=CNc1cc(-c2c(-c3ccc(F)cc3)nn3c2CCCC3)ccn1 [Example 36]	88%	80%	85%	78%	94%	89%	–	–	–	100%	99%	90%	93%	94%
CCC(=O)Nc1cc(-c2c(-c3ccc(F)cc3)nn3c2CCC3)ccn1 [Example 40]	100%	70%	81% and 75%	100%	–	95%	94%	100%	100%	90%	–	95%	100%	94%
CC(=O)Nc1cc(-c2c(-c3ccsc3)nn3c2CCCC3)ccn1 [Example 58]	100%	70%	–	100%	100%	90%	99%	100%	80%	89%	100%	94%	100%	96%
CCC(=O)Nc1cc(-c2c(-c3ccc(F)cc3)nn3c2CCC3C)ccn1 (centres unmarked) [Example 76]	100%	–	95%	88%	–	–	100%	100%	100%	100%	–	89%	90%	100%
CC(C)C(=O)Nc1cc(-c2c(-c3ccc(F)cc3)nn3c2CCC3C)ccn1 (centres unmarked) [Example 77]	100%	–	98%	88%	–	–	100%	100%	89%	100%	–	94%	90%	–
CC1CCc2c(-c3ccncc3F)c(-c3ccc(F)cc3)nn21 (centres unmarked) [Example 117]	100%	–	90%	100%	–	100%	100%	100%	94%	100%	–	86%	100%	95%
